Source: paper PMC12627862, “Therapeutic targeting of endothelial calcium signaling accelerates the resolution of lung injury” (Signal Transduction and Targeted Therapy, 2025)
Starred links: 1 amine or outer side, 2 acyl side, 3 side chain; linkers in the order of their positions; H or OH if unused. Non-standard residues stand in square brackets, D forms with d. Residues, ends and D or L forms follow the SMILES beside them. ξ: configuration not given here. Oic = O=C(O)[C@@H]1C[C@@H]2CCCC[C@@H]2N1; GABOB(3R) = O=C(C[C@@H](O)CN[*:1])[*:2]; tBuAla = CC(C)(C)C[C@H](N)C(=O)O; ξVal(3-OH) = CC(C)(O)C(N)C(=O)O; 4Amb = NCc1ccc(C(=O)O)cc1

Tests used:
[1] = tested on: CD1 mice, cecal ligation and puncture; assay: Polymicrobial sepsis model (CLP); type: in vivo, mouse
[2] = tested on: SARS-CoV-2 (WA1/2020); type: in vivo, mouse
[3] = in vitro; conditions: rat, plasma
Method: Stability assay of peptides in blood plasma of rodents, dogs, and humans. For the plasma stability assay, 5 μM of each peptide was incubated with species-specific plasma for 120 minutes and samples were taken at the required time points. Positive control used were molecules with known stability: enalapril, propantheline, and warfarin. The amount of test compound remaining at each time point was analyzed by LC-MS/MS. Appropriate control compounds for each species were also incubated.

[4] = tested on: CD1 mice challenged with LPS; assay: Endotoxemia model, sublethal LPS in oil-preloaded mice; type: in vivo, mouse; conditions: LPS 4 mg/kg i.p.
From the text: Considering the diverse etiological factors contributing to the pathogenesis of ARDS[29], we first assessed the therapeutic benefits of VT-109 in treating pulmonary vascular leakage in a murine model of endotoxemia-induced hyperinflammatory ARDS[30]. We induce a systemic inflammatory response by administering lipopolysaccharide (LPS), an endotoxin of the outer membrane of gram-negative bacteria, which elicits strong immune responses in animals, causing endothelial barrier breakdown and associated pulmonary edema, lung injury, morbidity, and mortality.
Using this model, we implemented two different i.v. treatment protocols with VT-109 (Fig. 3a, b). In cohort 1, mice received three daily doses of 1 µmol/kg bw VT-109 starting 24 hours after LPS challenge at the onset of lung injury. […] Cohort 3 mice received vehicle daily starting at 24 hours of LPS challenge. […] This inhibitory effect of VT-109 on neutrophil recruitment, a hallmark of lung inflammation and poor clinical prognosis, was consistent with our previous work[3]. Overall, our findings indicate that treating pulmonary vascular leakage reduces lung inflammation, in part, by restricting neutrophil transmigration through the endothelial barrier. […]
Evans’ blue-labeled albumin extravasation. […] The optical density of the supernatant was measured spectrophotometrically at 620 nm (Evans Blue) and 740 nm (hemoglobin correction), with the dye content normalized to the wet weight of the lungs. Corrections for hemoglobin were made as follows: Corrected absorbance (Evans blue) = Absorbance (620) - (1.426 × Absorbance (740) + 0.03). […]
Myeloperoxidase (MPO) measurements. […] MPO levels in the samples were determined using the o-dianisidine-H₂O₂ technique following enzyme extraction with hexadecyl-trimethylammonium bromide (HTAB). The absorbance change was measured at […] over a 3-minute period, and the data were expressed as ΔOD460/min/g lung tissue.

[5] = 24 hours after CLP, 18-gauge, n = 3
[6] = 24 hours after CLP, 2 µmol/kg bw i.v. 5 hours post-surgery, n = 5
[7] = BAL 24 hours after CLP, treatment at 5 hours post-surgery, Mean±Std, n = 8–10
[8] = CLP, VT-109 monotherapy 2 µmol/kg bw i.v.
[9] = PF (peritoneal fluid), head says BAL, CLP, Mean±Std

## CC(C)(C)C[C@@H]1NC(=O)C[C@@H](O)CNC(=O)[C@@H]2C[C@@H]3CCCC[C@@H]3N2C(=O)[C@H](CC(C)(C)C)NC(=O)c2ccc(cc2)CNC(=O)C(C(C)(C)O)NC(=O)[C@@H](Cc2ccccc2)NC1=O (stereo partly drawn) [compound 109, (1^2S,1^3aS,1^7aS,3S,10S,13R,16S,20R)-13-benzyl-20-hydroxy-10-(2-hydroxypropan-2-yl)-3,16-dineopentyl-1^2,1^3,1^3a,1^4,1^5,1^6,1^7,1^7a-octahydro-1^1H-4,8,11,14,17,22-hexaaza-1(1,2)-indola-6(1,4)-benzenacyclotricosaphane-2,5,9,12,15,18,23-heptaone.] (cyclo([4Amb][tBuAla][Oic][GABOB(3R)][tBuAla][dF][ξVal(3-OH)]))
[1]; 24 hours after CLP
  bacterial counts in the blood or peritoneal fluid: did not affect
[1]; [5]
  phosphorylation of FOXM1 at Ser715: increased phosphorylation
  sepsis-induced changes of FOXM1, FOXO1, E2F3, β-catenin and p21 in lung tissue (Western blot): reversed these changes
[1]; 24 hours after CLP, 18-gauge, to the baseline levels of sham mice
  VE-cadherin and occludin expression: restored
[1]; [6]
  alanine aminotransferase (ALT), blood: reduced levels
  blood urea nitrogen (BUN): reduced levels
[1]; 24 hours after CLP, VT-109 monotherapy versus vehicle
  bacterial colony counts in bronchoalveolar lavage fluid (BALF): markedly reduced
[1]; [7]
  BAL Cytokine mGM-CSF: 1.21 ± 0.70 pg/mL
  BAL Cytokine mIFNγ: 0.49 ± 0.34 pg/mL
  BAL Cytokine mIL-1a: 0.14 ± 0.00 pg/mL
  BAL Cytokine mIL-1b: 1.59 ± 1.01 pg/mL
  BAL Cytokine mIL-4: 2.79 ± 1.03 pg/mL
  BAL Cytokine mIL-6: 282.12 ± 522.24 pg/mL
  BAL Cytokine mIL-10: 2.19 ± 2.95 pg/mL
  BAL Cytokine mIL-12: 16.99 ± 7.90 pg/mL
  BAL Cytokine mIL-17: 0.14 ± 0.00 pg/mL
  BAL Cytokine mKC: 609.75 ± 878.78 pg/mL
  BAL Cytokine mMCP-1: 19.17 ± 28.01 pg/mL
  BAL Cytokine mMIP-1α: 1.16 ± 1.31 pg/mL
  BAL Cytokine mRANTES: 2.55 ± 5.23 pg/mL
[1]; CLP 18-gauge, VT-109 monotherapy 2 µmol/kg bw i.v., initiated 5 hours post-surgery
  survival rate: significantly improved the survival rate
[1]; CLP 18-gauge, monotherapy: VT-109 0.5 µmol/kg bw or enrofloxacin 5 mg/kg bw
  survival: neither antibiotics nor VT-109 monotherapy (0.5 µmol/kg bw) significantly improved survival
[1]; [8]
  acute lung injury (H&E, ALI score): prevented the development of acute lung injury
  neutrophil recruitment into lung tissue (Ly6G): markedly suppressed
[1]; [9]
  Cytokine mGM-CSF: 15.75 ± 20.22 pg/mL
  Cytokine mIFNγ: 4.39 ± 3.00 pg/mL
  Cytokine mIL-1a: 104.93 ± 94.65 pg/mL
  Cytokine mIL-1b: 229.14 ± 237.82 pg/mL
  Cytokine mIL-3: 0.28 ± 0.00 pg/mL
  Cytokine mIL-4: 6.90 ± 0.83 pg/mL
  Cytokine mIL-5: 5.06 ± 2.77 pg/mL
  Cytokine mIL-6: 46833 ± 65942 pg/mL
  Cytokine mIL-10: 432.67 ± 490.14 pg/mL
  Cytokine mIL-12: 57.48 ± 43.37 pg/mL
  Cytokine mIL-17: 7.20 ± 5.26 pg/mL
  Cytokine mKC: 24611 ± 34486 pg/mL
  Cytokine mMCP-1: 16338 ± 17531 pg/mL
  Cytokine mMIP-1α: 5136 ± 8056 pg/mL
  Cytokine mRANTES: 382.32 ± 397.78 pg/mL
  Cytokine mTNFα: 29.39 ± 31.64 pg/mL
[2]; 250 nmol/kg bw from 1 dpi
  lung injury (ALI score): promoted the resolution of lung injury by day 7
[2]; 250 nmol/kg bw, 7 dpi
  NFATC2 nuclear accumulation in endothelial and immune cells: reduced NFATC2 nuclear accumulation
  VE-cadherin junctions: reannealed junctions
[2]; 2 µmol/kg bw i.v.
  number of infiltrating monocytes and neutrophils in the BALF: significantly reduced
[2]; 2 µmol/kg bw i.v., 5 dpi
  blood-brain barrier (BBB) integrity, cerebral cortex: restored BBB integrity
[3]
  half-life at 5 μM: 293 min
  remaining at 2 h, 5 μM: 76.5%
[4]; cohort 1: three daily i.v. doses of 1 µmol/kg bw starting 24 hours after LPS
  pulmonary edema (EBA extravasation): promptly blocked the development of pulmonary edema
[4]; cohort 2: two daily i.v. doses of 1 µmol/kg bw starting 72 hours after LPS
  pulmonary edema (EBA extravasation): accelerated the resolution of pulmonary edema
[4]; regardless of the treatment initiation time
  myeloperoxidase (MPO) in the lung tissue: consistently lowered
